Earlier results, collected in patent publication US20220249605A1, “Treatment of Mood and Anxiety Disorders” (Icahn School of Medicine At Mount Sinai, priority 2013, published 2022).
pEC50, pIC50, pKi: −log10 of the molar value. Each block holds one compound with its values, some of them ahead of it. Bridge positions count the residues as written; N and C are the ends. Ends that are not written are not given here.

Experiments:
[1] = anesthetized rats
NPY Y2 receptor = biological target: T1, NPY Y2 receptor (Homo sapiens, UniProt P49146); details: read-out: IC50, Y2 receptor antagonist
T1 sequence (P49146 1-381): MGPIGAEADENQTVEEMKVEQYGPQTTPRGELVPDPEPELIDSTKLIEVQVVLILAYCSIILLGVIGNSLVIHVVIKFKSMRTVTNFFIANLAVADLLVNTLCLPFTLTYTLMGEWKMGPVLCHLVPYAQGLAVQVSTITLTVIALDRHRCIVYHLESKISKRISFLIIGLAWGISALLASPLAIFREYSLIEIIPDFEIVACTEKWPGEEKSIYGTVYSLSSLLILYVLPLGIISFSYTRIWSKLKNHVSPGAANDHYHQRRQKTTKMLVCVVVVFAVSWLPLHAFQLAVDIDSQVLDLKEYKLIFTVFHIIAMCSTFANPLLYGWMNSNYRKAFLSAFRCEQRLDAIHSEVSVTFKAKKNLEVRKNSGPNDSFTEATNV

Y1 receptors = biological target: T2, Y1 receptors (Homo sapiens, UniProt P25929)
T2 sequence (P25929 1-384): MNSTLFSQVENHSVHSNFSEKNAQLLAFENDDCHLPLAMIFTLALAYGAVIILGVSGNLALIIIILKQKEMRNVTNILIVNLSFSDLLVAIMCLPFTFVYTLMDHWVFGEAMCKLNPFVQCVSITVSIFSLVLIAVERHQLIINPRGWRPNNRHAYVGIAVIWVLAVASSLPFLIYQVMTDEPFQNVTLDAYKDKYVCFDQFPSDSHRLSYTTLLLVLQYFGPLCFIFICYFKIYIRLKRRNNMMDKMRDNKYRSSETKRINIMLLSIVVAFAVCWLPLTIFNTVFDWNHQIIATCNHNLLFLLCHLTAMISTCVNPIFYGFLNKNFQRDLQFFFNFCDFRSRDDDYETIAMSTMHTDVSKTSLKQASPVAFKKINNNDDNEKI

[2] = tested on: norepinephrine-stimulated cAMP accumulation in SK-N-MC cells; details: read-out: EC50, inhibition of norepinephrine-stimulated cAMP accumulation
[3] = anesthetized rats and dogs

Compound: CN(C)S(=O)(=O)c1ccc(NC(=S)N2CCC(C(O)(c3ccccc3)c3ccccc3)CC2)cc1 [CYM 9484]
pIC50 (NPY Y2 receptor): 7.72

Compound: (Leu^31, Pro^34)-Neuropeptide Y [H-3306]
Specificity (Y1 receptor) (Y1 receptor): Specific Y1 receptor

Now from value to compound, other results behind:

Specificity (Y1 receptor) (Y1 receptor): selective ligand for
Compound: (Leu^31, Pro^34)-Neuropeptide Y [H-8575]
Potency in increasing blood pressure compared with NPY [1]: showing an even higher

pKi (Y1 receptors): 7.80
pEC50 [2]: 7.92
Compound: Tyr-Lys-Gly-(Cyclo(Glu^26-Lys^29), Pro^34)-Neuropeptide Y (25-36) (YKGREYIKLITRPRY; lactam 5-8; ends not checked) [H-3972]

Specificity (Y1 receptor) (Y1 receptor): selective NPY agonist
Compound: (Pro^34)-Neuropeptide Y [H-8580]
Effect on blood pressure [3]: increased blood
Inhibitory effects on cardiac vagal action [3]: contrast, showed no
